Results reported in US8710182B2, “Rapid glycopeptide optimization via neoglycosylation” (Wisconsin Alumni Research Foundation, priority 2006, dated 2014).

System: VRE
Settings: preliminary testing

## 2′-N-acyldecanoyl-glucosyl vancomycin neoglycoside [compound 5]
  activity against VRE: significant activity
